From patent US7855076B2, “Use of discoidin domain receptor 1 (DDR1) and agents that affect the DDR1/collagen pathway” (The United States of America as represented by the …, priority 2002, dated 2010)

What was measured:
[1] = molecular target: T1, DDR1a (Homo sapiens, UniProt Q08345); assay: Autophosphorylation of DDR1a overexpressed in THP-1 cells; type: cell-based
T1 construct: The full-length human DDR1a or DDR1b cDNA was ligated into the EcoRI/BamHI site of the retroviral vector pLXSN; expressed in transfected cells; host or cells: THP-1 human monocytic leukemia cells, retroviral vector pLXSN, G418-selected clones
Experimental: Using the retrovirus-infected cell lines, the effect of collagen type I on the phosphorylation of DDR1 proteins was tested. Two million cells in 3 ml complete medium were added onto collagen type I-coated plastic plates and incubated at 37° C. for various times. Cell lysates were prepared and immunoprecipitation was performed with the anti-DDR1 antibody. One-fourth of the immunoprecipitated samples was subjected to SDS-PAGE and Western blotting. The membranes were blotted with anti-pTyr and anti-DDR1 antibody. Low levels of constitutive autophosphorylation of both receptors were detected. The levels of autophosphorylation increased slightly at 15 minutes and peaked at 90 minutes after activation of the cells on collagen type I-coated plastic plates. The peak level was maintained for up to 240 minutes for DDR1a, which is consistent with the previously reported delayed kinetics of […] autophosphorylation in other cell types (Vogel FASEB J, (Suppl.), S77-S82, 1999). In contrast, autophosphorylation of DDR1b decreased after 90 minutes of collagen-activation.
Parental, mock, DDR1a- or DDR1b-overexpressing THP-1 cells were plated at 5×10^6/ml on uncoated tissue culture plates and stimulated with PMA (10 nM) for 24 hours, and then starved in RMPI 1640 without FCS for 10 hours. Subsequently cells were washed three times with PBS, and then incubated in the presence of 50 μg/ml collagen type I for various times.
Ten million cells were lysed on ice for 20 minutes in a buffer containing 50 mM NaCl, 20 mM Tris-HCl, 50 mM sodium fluoride, 30 mM Na4P2O7, 5 mM EGTA, 3 mM sodium orthovanadate, 1% Triton X-100, 1 mg/ml leupeptin, 1 mM PMSF, 1 mg/ml aprotinin, 1 mg/ml pepstatinA and 100 μM sodium orthovanadate treated with H2O2. […]
Eluted proteins were analyzed on 8% polyacrylamide gels by SDS-PAGE and transferred electrophoretically to nitrocellulose membranes at 150 mA for 1 hour by a semi-dry system. […] To detect phosphorylated or nonphosphorylated p38 MAP kinase or ATF-2, 20 μl of cell lysates were directly mixed with 20 μl of sample buffer and then analyzed.

[2] = tested on: THP-1 cells; assay: Adherence of THP-1 cells to coated plates; type: cell-based, human; conditions: DDR1a- or DDR1b-overexpressing THP-1 cells, 30 minutes
Experimental: 5×10^5 cells/ml were cultured on either BSA (10 mg/ml)- or collagen (20 μg/ml) and BSA-coated plates for 30 (FIG. 2A) or 120 minutes (FIG. 2B) at 37° C. in a 5% CO2 humidified incubator. Normal mouse IgG or anti-β1 integrin blocking IgG was added to measure the effect of β1 integrin in the assay. The number of adherent cells in each 400× visual field was counted. The results are presented as means ±SE of four individual fields. Data are representative of three experiments with two independent clones overexpressing either DDR1a or DDR1b.
To determine the effects of collagen on the functions of DDR1a- and DDR1b-overexpressing THP-1 cells, the cells were incubated on collagen-coated plastic plates. Twenty-four-well plates were coated with 100 μl/well human collagen type I (20 μg/ml) overnight at 4° C., and then with 200 μl/well 10 mg/ml bovine serum albumin (BSA) for 1 hour at 37° C. Cells were plated at the cell density of 1×10^5 cells/ml to the coated wells and were incubated for 30 minutes at 37° C. in 5% CO2 humidified atmosphere. Nonadherent cells were removed by washing three times with PBS. Cells that remained on the coated surface were considered to be adherent, and the number of cells in each 400 field was counted. Results were presented as mean ±SE per 400 field.

[3] = PMA-treated cells, 50 μg/ml collagen type I

T1 sequence (Q08345 19-876 isoform Q08345-2 limits assumed): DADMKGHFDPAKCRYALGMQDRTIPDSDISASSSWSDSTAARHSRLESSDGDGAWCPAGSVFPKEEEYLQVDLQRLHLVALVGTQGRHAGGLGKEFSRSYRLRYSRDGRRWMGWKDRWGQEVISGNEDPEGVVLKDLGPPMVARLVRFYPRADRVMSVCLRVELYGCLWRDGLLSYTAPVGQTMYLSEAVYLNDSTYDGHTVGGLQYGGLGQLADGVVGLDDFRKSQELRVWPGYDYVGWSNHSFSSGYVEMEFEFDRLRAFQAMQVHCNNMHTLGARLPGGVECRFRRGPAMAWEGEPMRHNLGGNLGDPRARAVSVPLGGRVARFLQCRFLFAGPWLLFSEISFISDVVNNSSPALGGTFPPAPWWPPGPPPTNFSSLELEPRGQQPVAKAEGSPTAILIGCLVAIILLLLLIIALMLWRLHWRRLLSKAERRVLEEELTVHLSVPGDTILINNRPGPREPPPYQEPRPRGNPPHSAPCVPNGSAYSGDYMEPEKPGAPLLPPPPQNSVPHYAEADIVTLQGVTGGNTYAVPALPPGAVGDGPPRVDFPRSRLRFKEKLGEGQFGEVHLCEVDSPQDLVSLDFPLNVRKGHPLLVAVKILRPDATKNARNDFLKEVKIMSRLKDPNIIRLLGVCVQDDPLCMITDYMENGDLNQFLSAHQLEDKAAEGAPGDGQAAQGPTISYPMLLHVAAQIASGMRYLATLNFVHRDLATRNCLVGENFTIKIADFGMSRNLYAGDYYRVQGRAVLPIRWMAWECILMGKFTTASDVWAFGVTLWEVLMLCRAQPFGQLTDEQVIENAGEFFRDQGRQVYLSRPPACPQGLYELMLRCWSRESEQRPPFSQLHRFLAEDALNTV

Substance: collagen
- time autophosphorylation first detected [1, 3]: 90 min
- time of peak autophosphorylation [1, 3]: 4 h
- time of peak autophosphorylation ([1]; collagen type I-coated plates, cells not PMA-treated): 1.5 h
- cells adhered to collagen-coated plates [2]: ~62 % of total cells
